What was measured:
[1] = system: HDMEC; assay: VEGF-induced proliferation; format: cell-based, human; settings: 72 h, NS = inhibition less than 50%
Experimental: (§1) Cells were seeded in triplicate at a concentration of 6.0 × 10^5/ml, in 2 ml of complete medium in 6-well plates. […] Growth factors, FGF-2 (25 ng/ml), EGF (75 ng/ml) and VEGF (10 ng/ml) and test compounds at different concentration were added and cells incubated for a further 72 h. Control wells were treated with 5 μl DMSO. Concentration ranges of test compounds and pre-incubation times were based on pilot studies. After 72 h, cells were washed in PBS, detached in 0.05%w/v trypsin in PBS, and counted on a Coulter counter (Coulter Electronics, Hialeah, FL) set to a threshold of 30 μm. Experiments were performed in triplicate and repeated at least twice.

[2] = system: BAEC; assay: FGF-2-induced tube formation in Matrigel; format: cell-based, bovine; settings: Matrigel; for IC50: 24 h, FGF-2 25 ng/ml
Experimental: Cells (1.0 × 10^6/ml) were mixed with an equal volume of Matrigel (Becton -Dickinson, Oxford, UK; prepared according to the supplier's instructions) at 4°C. Aliquots (80 μl) were added to the wells of a 48-well plate and allowed to polymerise (1 h) then 500 μl of 15% FCS containing FGF-2 (25 ng/ml; or other growth factors), with or without test compounds was added. The cells were incubated for 24 h at 37°C then fixed in 4% paraformaldehyde (5 min), washed in cold ethanol and the plate air dried. Cells were stained with Geimsa (30 s), air dried and photographed. Ten random fields were selected and the number of closed tubes counted.

[3] = system: BAEC; assay: FGF-2-induced proliferation; format: cell-based, bovine; settings: Bos taurus, FGF-2 25 ng/ml, 72 h, NS = inhibition less than 50%
Experimental: as §1

- IC50 ([2]; Bos taurus): 11.1 ± 0.28 µM
- IC50 [2]: 18.2 ± 0.65 µM
SMILES: COc1cc(C=Cc2ccc(O)cc2)cc(OC2OC(COC3OC(C)C(O)C(O)C3O)C(O)C(O)C2OC2OC(C)C(O)C(O)C2O)c1 (stereo not drawn) [Compound 1]
- VEGF-induced proliferation, IC50 [1]: no significant inhibitory effect
- IC50 ([1]; Homo sapiens): > 71.5 µM
- Effect on tube formation in the absence of FGF-2 ([2]; without FGF-2): no inhibitory effect
- IC50 [3]: 48.9 ± 0.4 µM

— publication PMC2678990, “Stilbene glycosides are natural product inhibitors of FGF-2-induced angiogenesis” (BMC Cell Biology, 2009)
